Read-outs that look alike come from different tables or passages of the source.
Key:
Leukemia L1210 [1] = assay: Activity against Leukemia L1210, intraperitoneal, increase in life span of mice; format: in vivo, female mice (BDF1 family); settings: for ED (maximum ILS) / ED30: Mus musculus, L1210, ip, ip once a day for 5 successive days; for ED (maximum ILS): daily dosage giving maximum increase of life span, read-out: O.D. (optimum dosage); for ED30: daily dosage increasing average survival days by 30%, read-out: ILS30; for Survivors after 60 days / Max. ILS % / Therapeutic ratio TR: ip; for Survivors after 60 days: 6-membered group; for Max. ILS %: 60-day observation, versus control; for Therapeutic ratio TR: O.D./ILS30
Method in brief: (§1)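 Beginning 24 hours after intraperitoneal implantation of 1×10^5 leukemia cells, six-mouse groups of female BDF1 mice receive the test compound once daily for five consecutive days by the ip or oral route. Survival is recorded up to 60 days and compared with untreated controls.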

Leukemia L1210 [2] = assay: Activity against Leukemia L1210, oral, increase in life span of mice; format: in vivo, female mice (BDF1 family); settings: for ED (maximum ILS) / ED30: Mus musculus, L1210, oral once a day for 5 successive days; for ED (maximum ILS): daily dosage giving maximum increase of life span, read-out: O.D. (optimum dosage); for ED30: daily dosage increasing average survival days by 30%, read-out: ILS30; for Survivors after 60 days / Max. ILS % / Therapeutic ratio TR: oral; for Survivors after 60 days: 6-membered group; for Max. ILS %: 60-day observation, versus control; for Therapeutic ratio TR: O.D./ILS30
Method in brief: as §1

[3] = Acute toxicity (LD50, Behrens-Karber method); format: in vivo, ICR mice; settings: mouse, in vivo, ip, mortality during 30 days
Experimental: Test compounds, dissolved or suspended in 0.5% aqueous CMC, were each intraperitoneally administered to ICR mice in a dose of 0.1 ml per 10 g body weight. LD50 (mg/kg) value of each test compound was calculated from the mortality of mice during 30 days by the Behrens-Karber method.

Ehrlich acites carcinoma = assay: Growth-inhibiting effect against Ehrlich acites carcinoma; format: in vivo, male mice; settings: Mus musculus, Ehrlich, 120 h, 5 days; for response vs control in vivo at 25 mg/kg: 25 mg/kg/day ip; for response vs control in vivo at 100 mg/kg: 100 mg/kg/day ip
Method in brief: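 Male mice (groups of 6) implanted intraperitoneally with 1×10^7 Ehrlich ascites cells; compounds in 1% Nikkol HCO-60 given i.p. once daily for 5 days starting 24 hrs post-implantation. Total packed cell volume measured at day 7; T/C% vs untreated group, scored - (100-66), + (65-41), ++ (40-11), +++ (10-0).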

Row | SMILES | ED (maximum ILS) (Leukemia L1210 [1]) [mg/kg] | ED30 (Leukemia L1210 [1]) [mg/kg] | Survivors after 60 days (Leukemia L1210 [1]) | Max. ILS % (Leukemia L1210 [1]) [%] | Therapeutic ratio TR (Leukemia L1210 [1]) | ED (maximum ILS) (Leukemia L1210 [2]) [mg/kg] | ED30 (Leukemia L1210 [2]) [mg/kg] | Survivors after 60 days (Leukemia L1210 [2]) | Max. ILS % (Leukemia L1210 [2]) [%] | Therapeutic ratio TR (Leukemia L1210 [2]) | LD50 at 720 h [3] [mg/kg] | response vs control in vivo at 25 mg/kg (Ehrlich acites carcinoma; read-out: Activity) [%] | response vs control in vivo at 25 mg/kg (Ehrlich acites carcinoma; read-out: T/C %) [%] | response vs control in vivo at 100 mg/kg (Ehrlich acites carcinoma; read-out: Activity) [%] | response vs control in vivo at 100 mg/kg (Ehrlich acites carcinoma; read-out: T/C %) [%]
1 | CCCCO[C@H]1O[C@H](CN(CC(C)OC)C(=O)N(CCCl)N=O)[C@@H](O)[C@H](O)[C@H]1O (stereo partly drawn) [Compound 11, 3-(2-methoxy-n-propyl)-3-(n-butyl α-D-glucopyranose-6-yl)-1-(2-chloroethyl)-1-nitrosourea] | 170 | 2.9 | 6/6 | > 700 | 58.6 | 220 | 9.57 | 6/6 | > 700 | 23.0 | 495 | 0 to 10 | 0 | 0 to 10 | 0
2 | COCC(C)N(C[C@H]1O[C@H](OCC(C)C)[C@H](O)[C@@H](O)[C@@H]1O)C(=O)N(CCCl)N=O (stereo partly drawn) [Compound 16, 3-(1-methyl-2-methoxyethyl)-3-(isobutyl α-D-glucopyranose-6-yl)-1-(2-chloroethyl)-1-nitrosourea] | 190 | 2.9 | 6/6 | > 700 | 65.6 | 240 | 8.82 | 6/6 | > 700 | 27.2 | 580 | 0 to 10 | 0 | 0 to 10 | 0
3 | COCC(C)N(C[C@H]1O[C@H](OC2CCCCC2)[C@H](O)[C@@H](O)[C@@H]1O)C(=O)N(CCCl)N=O (stereo partly drawn) [Compound 42, 3-(1-methyl-2-methoxyethyl)-3-(cyclohexyl α-D-glucopyranose-6-yl)-1-(2-chloroethyl)-1-nitrosourea] | 180 | 2.7 | 6/6 | > 700 | 66.6 | 230 | 7.88 | 6/6 | > 700 | 29.2 | 595 | 0 to 10 | 0 | 0 to 10 | 0
4 | COCCN(C(=O)N(CCCl)N=O)C1C(OC(C)COC)OC(CO)C(O)C1O [Compound 71, 3-(2-methoxyethyl)-3-(1-methyl-2-methoxyethyl α-D-glucopyranose-2-yl)-1-(2-chloroethyl)-1-nitrosourea] | 180 | 4.17 | 6/6 | > 700 | 43.2 | 220 | 13.1 | 4/6 | > 440 | 16.8 | 560 | 0 to 10 | 0 | 0 to 10 | 0
5 | O=NN(CCCl)C(=O)N(C1CCCCC1)C1C(OCC2CCCO2)OC(CO)C(O)C1O [Compound 75, 3-cyclohexyl-3-(tetrahydrofurfuryl α-D-glucopyranose-2-yl)-1-(2-chloroethyl)-1-nitrosourea] | 160 | 3.67 | 5/6 | > 625 | 43.6 | 200 | 11.6 | 4/6 | > 450 | 17.2 | 505 | 0 to 10 | 0 | 0 to 10 | 0
